For assay [1], the target named is T1, multimeric extracellular GPBP (Homo sapiens, UniProt Q9Y5P4).
T1 construct: made in house; host or cells: Sf9 insect cells (baculovirus), purified from culture medium
T1 sequence (Q9Y5P4 1-624): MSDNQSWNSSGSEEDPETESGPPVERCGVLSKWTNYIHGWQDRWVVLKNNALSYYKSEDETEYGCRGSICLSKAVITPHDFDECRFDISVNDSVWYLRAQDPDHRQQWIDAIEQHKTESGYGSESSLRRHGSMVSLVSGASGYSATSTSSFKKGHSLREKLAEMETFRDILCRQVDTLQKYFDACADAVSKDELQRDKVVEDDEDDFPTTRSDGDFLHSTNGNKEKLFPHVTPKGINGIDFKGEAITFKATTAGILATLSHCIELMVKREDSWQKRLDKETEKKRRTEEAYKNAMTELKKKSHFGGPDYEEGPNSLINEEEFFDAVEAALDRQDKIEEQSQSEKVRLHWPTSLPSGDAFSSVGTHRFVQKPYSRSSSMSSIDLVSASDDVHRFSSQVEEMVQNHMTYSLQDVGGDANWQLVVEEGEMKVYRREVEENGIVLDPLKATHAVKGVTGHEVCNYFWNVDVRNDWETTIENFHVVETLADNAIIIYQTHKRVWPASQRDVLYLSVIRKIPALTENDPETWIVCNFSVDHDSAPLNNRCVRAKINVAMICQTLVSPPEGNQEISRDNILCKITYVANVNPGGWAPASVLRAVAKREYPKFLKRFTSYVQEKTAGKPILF
The experiment in a line: In vitro phosphorylation assay with multimeric extracellular GPBP. It counts as biochemical. Conditions: T12 50 μM; autophosphorylation, γ[32P]ATP; FIG. 2. The procedure: (§1) FIG. 2. […] Multimeric extracellular and trimeric intracellular GPBP were purified by affinity chromatography and subsequent gel filtration chromatography, and used for in vitro phosphorylation assays in absence (−) or presence (+) of T12 (50 μM). Reactions were subjected to SDS-PAGE, Western blot onto PVDF membrane and autoradiography, and further protein detected with anti-FLAG primary antibodies. Autoradiography and anti-FLAG® bands were quantified with WCIF IMAGEJ® software, and the normalized kinase activity estimated. Shown are normalized kinase activities. […] Samples were analyzed in triplicate and the data represents the Mean (±SEM) of three independent assays.
(§2) FLAG®-tagged GPBP was expressed using Bac-to-Bac® Baculovirus Expression System. […] Finally, purified protein was quantified with Bio-Rad Protein Assay and stored at −20° C. […]
(§3) Typically, about 270 ng of purified FLAG®-GPBP protein, either extracellular multimer or intracellular trimer, were incubated in presence or absence of T12 […] in a kinase assay buffer containing 25 mM disodium β-glycerophosphate, 8 mM MgCl2, 0.5 mM EDTA, 0.5 mM EGTA, 1 mM DTT, 5 mM MnCl2 during 10 min at 37° C. […] Then reactions were stopped with SDS-PAGE loading buffer and heat (95° C., 3 min) and analyzed by SDS-PAGE, electro-transference to PVDF membrane (Merck Millipore) and autoradiography. […]

In assay [2] the target is T2, trimeric intracellular GPBP (Homo sapiens, UniProt Q9Y5P4).
T2 construct: made in house; host or cells: Sf9 insect cells (baculovirus), purified from cell lysates
T2 sequence (Q9Y5P4 1-624): T1 sequence (Q9Y5P4 1-624)
The experiment in a line: In vitro phosphorylation assay with trimeric intracellular GPBP. It counts as biochemical. The settings on record: T12 50 μM; autophosphorylation, γ[32P]ATP; FIG. 2. The procedure: as §1, §2, §3

For assay [3], the system named is A7C11. As to the kind of experiment: Collagen IV expression in A7C11. Conditions: data not shown. The class given is cell-based, murine.
The test system of assay [4] is RAW264.7. The experiment in a line: Collagen IV expression in RAW264.7. It counts as cell-based. The settings on record: data not shown.
Assay [5] relates to A549 tumors displaying mesenchymal phenotype. The experiment in a line: A549 xenograft, tumors with mesenchymal phenotype. The class given is in vivo. Conditions: T12 20 mg/kg/day in drinking water; athymic mice; FIG. 10A. The text has this: FIG. 10. […] Control, n=43; T12, n=18.
In assay [6] the test system is stem A549 cells. The settings on record: WO/2014/006020; cited from earlier work.

Structures are written as SMILES.

With `COc1ccc(-c2ccc(-c3cccc(C)c3)c(C)c2)c(CCC(=O)O)c1` [T12, 3-[4″-methoxy-3,2′-dimethyl-(1,1′;4′,1″)terphenyl-2″-yl] propionic acid], the “normalized kinase activity of GPBP” value in assay [1] is “targeted extracellular GPBP multimer”; in assay [2], “not intracellular GPBP trimers”. In addition, the “collagen IV expression” value in assay [3] and in assay [4] was “significantly reduced collagen IV expression” in each case. Also, the “tumor growth (relative tumor volume)” value in assay [5] is on record as “very effective slowing the growth”. For the same molecule, in assay [6], the “doxorubicin accumulation and viability” value is given as “accumulated doxorubicin reducing viability”.

(Values after US20160184274A1, “Methods for inhibiting mesenchymal phenotype after epithelial-to-mesenchymal transition” (Fibrostatin, S.L., priority 2014, published 2016).)
